From patent US10351522B2, “Sulfonamide derivative and pharmaceutically acceptable acid addition salt thereof” (UNIVERSITY OF TSUKUBA, priority 2015, dated 2019)
Like-named read-outs stand apart in the source and are kept apart here.

Assays:
human OX1R = biological target: T1, human OX1R (Homo sapiens, UniProt O43613); experiment: Agonist activity against OX1R: intracellular calcium (Fura-2AM, FDSS7000) in CHOOX1R cells; assay type: cell-based; conditions: relative to orexin-A as full agonist (100%); for Emax at 0.1 µM / Emax at 1 µM / Emax at 10 µM: read-out: Response (%) OX1R
T1 construct: expressed in transfected cells; host or cells: CHO (Chinese hamster ovary) cells, line CHOOX1R, co-expressing NFAT-luciferase
T1 sequence (O43613 1-425): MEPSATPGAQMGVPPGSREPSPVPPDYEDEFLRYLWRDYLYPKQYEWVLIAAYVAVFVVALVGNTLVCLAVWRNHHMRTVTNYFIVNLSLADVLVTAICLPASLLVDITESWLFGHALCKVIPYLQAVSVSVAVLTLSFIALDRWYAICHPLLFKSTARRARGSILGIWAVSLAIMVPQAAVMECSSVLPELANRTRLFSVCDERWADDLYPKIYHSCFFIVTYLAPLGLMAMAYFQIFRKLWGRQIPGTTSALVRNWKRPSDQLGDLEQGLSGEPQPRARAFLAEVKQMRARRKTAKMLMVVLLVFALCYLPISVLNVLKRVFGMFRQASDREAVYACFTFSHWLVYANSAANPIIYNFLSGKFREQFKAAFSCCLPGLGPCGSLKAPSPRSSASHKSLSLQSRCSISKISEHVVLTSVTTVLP
Method: (§1) Evaluation of Agonist Activity Against OX1R and OX2R
(§2) NAFT-luciferase gene and human OX1R gene were constitutively expressed in CHO cell, which is a cell line derived from Chinese hamster ovary to establish a cell line (CHOOX1R) and NAFT-luciferase gene and human OX2R gene were constitutively expressed in CHO cell to establish a cell line (CHOOX2R). The respective cells were seeded in a 96-well Multiplate at 10,000 cells/well and cultured in a 5% FBS (Thermo Scientific)-added DMEM medium (Sigma-Aldrich) for 48 hr. The medium was removed, an assay buffer (20 mM HEPES (Sigma-Aldrich), Hanks' balanced salt solution (Gibco), 0.1% BSA (Sigma-Aldrich), 2.5 mM probenecid acid (Wako Pure Chemical Industries, Ltd.)) (100 μL) containing 5 μM Fura-2AM (Cayman Chemical) was added, and the cells were incubated for 60 min. The buffer containing Fura-2AM was removed, and an assay buffer (75 μL) was added. An assay buffer (25 μL) containing a test compound was added thereto to start the reaction. Changes in the intracellular calcium ion concentration due to the reaction were measured by measuring the fluorescence intensity ratio by dual wavelength excitation at 340 and 380 nm, by using FDSS7000 (Hamamatsu Photonics K.K.). The test compound was dissolved in DMSO to 10 mM, and diluted with the assay buffer to a final concentration of 10^−7M to 10^−5M (final concentration of DMSO 1%).
(§3) (As used herein, Response in Table 21 to Table 27 is a value obtained by dividing the agonist activity value, when the test compound is evaluated with orexin-A as a full-agonist (maximum value of agonist activity: 100%), at 10 μM, 1.0 μM, 0.1 μM by the agonist activity value of orexin-A.)

human OX2R = biological target: T2, human OX2R (Homo sapiens, UniProt O43614); experiment: Agonist activity against OX2R: intracellular calcium (Fura-2AM, FDSS7000) in CHOOX2R cells; assay type: cell-based; conditions: relative to orexin-A as full agonist (100%)
T2 construct: expressed in transfected cells; host or cells: CHO (Chinese hamster ovary) cells, line CHOOX2R, co-expressing NFAT-luciferase
T2 sequence (O43614 1-444): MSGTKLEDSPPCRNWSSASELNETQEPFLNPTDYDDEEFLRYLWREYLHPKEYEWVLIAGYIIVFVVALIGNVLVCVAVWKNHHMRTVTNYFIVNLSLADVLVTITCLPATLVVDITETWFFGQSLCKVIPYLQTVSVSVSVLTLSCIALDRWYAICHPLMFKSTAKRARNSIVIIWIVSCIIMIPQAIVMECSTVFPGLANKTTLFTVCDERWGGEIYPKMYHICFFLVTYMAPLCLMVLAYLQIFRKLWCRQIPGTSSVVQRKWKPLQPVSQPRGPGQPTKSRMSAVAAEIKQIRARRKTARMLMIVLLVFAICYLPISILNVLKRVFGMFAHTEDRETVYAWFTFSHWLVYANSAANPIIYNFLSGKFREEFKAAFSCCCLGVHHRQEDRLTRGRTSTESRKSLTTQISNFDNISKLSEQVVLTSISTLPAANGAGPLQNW
Method: as §1, §2, §3

Row | Compound | Response (%) OX1R (human OX1R; 0.1 μM test compound) | Response (%) OX1R (human OX1R; 1.0 μM test compound) | Response (%) OX1R (human OX1R; 10 μM test compound) | Response (%) OX2R (human OX2R; 0.1 μM test compound) | Response (%) OX2R (human OX2R; 1.0 μM test compound) | Response (%) OX2R (human OX2R; 10 μM test compound) | Response (%) OX2R (human OX2R; test compound 0.1 μM) | Response (%) OX2R (human OX2R; test compound 1.0 μM) | Response (%) OX2R (human OX2R; test compound 10 μM) | further results
1 | COc1ccccc1C(=O)Nc1cccc(NS(=O)(=O)c2cc(-c3cccc(C(=O)N(C)C)c3)ccc2OC)c1 [Example 18] | <5% | <5% | 15% | <5% | 6% | 44% |  |  |  | 
2 | CCN(Cc1cccnc1)C(=O)c1ccc(OC)c(S(=O)(=O)Nc2cccc(NC(=O)Nc3ccc(N(C)C)cc3)c2)c1 [Example 111] |  |  |  |  |  |  | 32% | 88% | 100% | Response (%) OX1R (human OX1R; test compound 0.1 μM): <5%; Response (%) OX1R (human OX1R; test compound 1.0 μM): <5%; Response (%) OX1R (human OX1R; test compound 10 μM): <5%
3 | COc1ccc(-c2cccc(C(=O)N(C)C)c2)cc1S(=O)(=O)Nc1cccc(NC(=O)Nc2ccncc2)c1 [Example 70] | 6% | 6% | 6% | 9% | 9% | 46% |  |  |  | 
4 | COc1ccc(-c2cccc(C(=O)N(C)C)c2)cc1S(=O)(=O)Nc1cccc(NCc2ccc(C)cc2)c1 [Example 27] | <5% | 24% | 70% | 90% | 126% | 92% |  |  |  | 
5 | COc1ccc(C(=O)NCc2ccccc2)cc1S(=O)(=O)Nc1cccc(NC(=O)Nc2cccc(N(C)C)c2)c1 [Example 100, N-benzyl-3-(N-(3-(3-(3-(dimethylamino)phenyl)ureido)phenyl)sulfamoyl)-4-methoxybenzamide] |  |  |  |  |  |  | <5% | 7% | 49% | Emax at 0.1 µM (human OX1R; test compound 0.1 μM): < 5%; Emax at 1 µM (human OX1R; test compound 1.0 μM): < 5%; Emax at 10 µM (human OX1R; test compound 10 μM): < 5%
6 | COc1ccc(-c2cccc(C(=O)N(C)C)c2)cc1S(=O)(=O)Nc1cccc(NC(=O)Nc2ccccn2)c1 [Example 68] | 6% | 6% | 6% | 10% | 10% | 57% |  |  |  | 
7 | COc1ccc(C(=O)NCCCNC(=O)OC(C)(C)C)cc1S(=O)(=O)Nc1cccc(NC(=O)Nc2cccc(N(C)C)c2)c1 [Example 104] |  |  |  |  |  |  | 7% | 79% | 99% | Response (%) OX1R (human OX1R; test compound 0.1 μM): 7%; Response (%) OX1R (human OX1R; test compound 1.0 μM): 6%; Response (%) OX1R (human OX1R; test compound 10 μM): 7%
8 | COc1ccc(-c2cccc(C(=O)N(C)C)c2)cc1S(=O)(=O)Nc1cccc(NCc2ccccc2)c1 [Example 20, 3′-(N-(3-(benzylamino)phenyl)sulfamoyl)-4′-methoxy-N,N-dimethyl-[1,1′-biphenyl]-3-carboxamide] |  |  |  | <5% | 51% | 78% |  |  |  | Emax at 0.1 µM (human OX1R; 0.1 μM test compound): < 5%; Emax at 1 µM (human OX1R; 1.0 μM test compound): < 5%; Emax at 10 µM (human OX1R; 10 μM test compound): 17%
9 | COc1ccc(-c2cccc(C(=O)N(C)C)c2)cc1S(=O)(=O)Nc1cccc(NC(=O)Nc2cccc(NC(=N)N)c2)c1 [Example 65] | <5% | <5% | <5% | <5% | <5% | 6% |  |  |  | 
